US20050208058A1, “Compositions and methods for modulating cell division” (priority 2003, published 2005)
d = 2'-deoxy (DNA)

Legend:
Type in all cases: cell-based, human
RPE cells [1] = test: BrDU incorporation after siRNA treatment and nocodazole synchronization; settings: relative to control cells (siRNA to lamin), after nocodazole release; FIG. 2A
Method: (§1) To further study the effects of silencing centrosomal genes, the following cell cycle experiments were performed using RPE cells. In immunofluorescence experiments, cells were delivered by OLIGOFECTAMINE in a media solution containing between 1-100 nanomolar concentration of siRNAs. After 4 hours of incubation with lipofectamine, cells were washed, and cell cycle progression was assayed by (i) treating cells with 5-Bromo-2′-deoxyuridine (BrDU from Sigma, St Louis, Mo.) for 24 hours and staining for BrDU or (ii) staining cells with antibody to Ki-67 (BD Biosciences) according to manufacturer's instructions. BrDU treatment and staining were performed as follows: after 50-70 hours incubation with siRNA, BrDU was added to cells at a final concentration of 5 μg/ml. Cells were fixed in −20° C. methanol and then treated with 2N HCL at 22° C. for 30 minutes, incubated with 1:500 mouse anti-BrdU antibody (Becton Dickinson, Palo Alto, Calif.), and labeled with 1:1,000 goat FITC-mouse antibody (Molecular Probes, Inc.). Cells were also treated with 4′,6-diamidino-2-phenylindole (DAPI) (Molecular Probes) according to the manufacturer's instructions. Cells were prepared, imaged, and the resulting images were deconvolved as described in Example 1.
Upon release from nocodazole treatment, proliferating cells typically resume cell cycle progression. Chromosomal DNA in the cells was imaged using DAPI (faint ghost-like staining) and/or BrDU (brighter staining). Although DAPI can be used to visualize DNA at any stage of the cell cycle, BrDU is only incorporated into newly synthesized DNA only during S-phase. Thus, BrDU incorporation can be used as a marker of cells that progress through at least one S-phase of the cell cycle. Control cells in this experiment were treated with siRNA to lamin.

RPE cells [2] = test: Ki-67 staining of siRNA-treated cells; settings: vs silamin; FIG. 2B
Method: as §1
FIG. 2B confirms the results in FIG. 2A using a different immunofluorescence marker for cell cycle progression. […]

RPE cells [3] = test: Flow cytometry (FACS) of nocodazole-induced shift from G1 to G2/M peak after siRNA treatment
Method: For flow cytometry (i.e., fluorescence-activated cell sorter or FACS) experiments, siRNAs were delivered to cells as described above, and were incubated for 50-70 hours. To synchronize cells, nocodazole was added to the cells to a concentration of 5 μg/mL for 12 hours. Cells were stained with propidium iodide and analyzed by flow cytometry (FACSCAN; Becton Dickinson) using FLOJO® software (Tree Star, Inc., Ashland, Oreg.).
In another approach to evaluating the effect requirement for centrosomal gene products, fluorescence assisted cell sorting (flow cytometry or FACS) analysis was performed as described in Gromley et al., J. Cell Biol., 161:535-545 (2003). Briefly, cells were treated with indicated siRNA for at least 50-70 hours, unless otherwise indicated. Cells were synchronized by adding nocodazole to 5 μg/mL for 12 hours prior to cell collection. Cells were collected, fixed in methanol, stained with propidium iodide, and analyzed by flow cytometry (FACSCAN®;Becton Dickinson) using FLOJO® software (Tree Star, Inc.).
FIG. 3A is a graph showing the effects of depleting the indicated centrosomal gene products by siRNA treatment. The left side of the graph depicts the FACS results for treated cells before the addition of nocodazole (-noc). The major fluorescence peak in (-noc) cells is the G1 peak, (i.e., lower DNA fluorescence). The right side of the graph depicts the results for cells after nocodazole treatment (+noc). […] This may be due to inefficient silencing caused by the siRNAs used.
The ability of a number of centrosomal genes to inhibit cell cycling of RPE1 cells was tested by treating cells with siRNAs and performing FACS analysis as described in Example 2.

p53 = test: Immunofluorescence of p53 and phosphorylated p53 (α-Pser33-p53) localization; settings: vs silamin
Method: A number of experiments were conducted to determine if p53 is required for the cell cycle arrest phenotype described herein. FACS analysis of tandem siRNA-treated cells was performed as described in Example 2. BrDU and DAPI imaging was performed as described in Example 2. Intracellular p53 was visualized using anti-p53 antibody that is specific for activated p53 (i.e., p53 phosphorylated at Serine 33) (“α-Pser33-p53” provided by Yoichi Taya and described in Kishis et al., J. Biol. Chem., 276:39115-3922, 2001)
Translocation of p53 into the nucleus caused by depletion of centrosomal proteins was also observed by immunofluorescence. […] Relatively little p53 translocated from the cytoplasm to the nucleus of silamin.
An antibody specifically reactive for phosphorylated p53 (α-Pser33-p53) was used to determine the phosphorylated state of p53 that accumulates in the nucleus as a result of GCP2 gene product depletion. In FIG. 6F, the left panels depict cells treated with silamin; the right panels depict cells treated with siGCP2. […] The two upper panels show a merged view of (i) the bottom panels and (ii) the same cells stained with DAPI. […] This nuclear localization is confirmed by the overlapping DAPI staining.

UCUCGUACUCCAGAAGACU (siRNA; RNA, 3' dTdT, backbone not given here) [siGCP2, siRNA directed to GCP2]
incorporation of BrDU into chromosomal material (RPE cells [1]): clearly inhibited incorporation of BrDU
cells expressing Ki67 (RPE cells [2]): Very few cells
block of nocodazole-induced shift to G2/M peak at 72 hours (RPE cells [3]; 72 hours of siRNA treatment, FIG. 3B): effectively blocked the nocodazole-induced shift
inhibition of nocodazole-induced shift from G1 peak to G2/M peak (RPE cells [3]; siRNA 50-70 hours, nocodazole 5 μg/mL 12 hours, FIG. 3A, FIG. 8): prevented nocodazole-induced shift
duration of block of nocodazole shift (RPE cells [3]; time course, FIG. 3B): at least 244 hours
time of siRNA treatment before prevention of the nocodazole shift occurs (RPE cells [3]; time course, FIG. 3B): > 48 h
p53 accumulation in nucleus (immunofluorescence) (p53; FIG. 6E): substantially more p53 accumulated in nucleus
localization of activated p53 (α-Pser33-p53 staining) (p53; FIG. 6F): activated p53 was detected only in the nucleus
